Experiments:
Rattus norvegicus = assay: Minimal dose producing reduction in avoidance responding after sc administration for 1 hr in rat; assay type: functional
D(2) dopamine receptor = D(2) dopamine receptor (Rattus norvegicus, UniProt P61169); assay: Binding affinity towards Dopamine receptor D2 in rat striatal tissue by [3H]spiperone displacement.; assay type: tissue-based, Striatum
D(1A) dopamine receptor = D(1A) dopamine receptor (Rattus norvegicus, UniProt P18901); assay: Binding affinity towards Dopamine receptor D1 in rat striatal tissue by [3H]-SCH- 23390 displacement.; assay type: tissue-based, Striatum
D(1A) dopamine receptor, sequence (P18901 whole entry): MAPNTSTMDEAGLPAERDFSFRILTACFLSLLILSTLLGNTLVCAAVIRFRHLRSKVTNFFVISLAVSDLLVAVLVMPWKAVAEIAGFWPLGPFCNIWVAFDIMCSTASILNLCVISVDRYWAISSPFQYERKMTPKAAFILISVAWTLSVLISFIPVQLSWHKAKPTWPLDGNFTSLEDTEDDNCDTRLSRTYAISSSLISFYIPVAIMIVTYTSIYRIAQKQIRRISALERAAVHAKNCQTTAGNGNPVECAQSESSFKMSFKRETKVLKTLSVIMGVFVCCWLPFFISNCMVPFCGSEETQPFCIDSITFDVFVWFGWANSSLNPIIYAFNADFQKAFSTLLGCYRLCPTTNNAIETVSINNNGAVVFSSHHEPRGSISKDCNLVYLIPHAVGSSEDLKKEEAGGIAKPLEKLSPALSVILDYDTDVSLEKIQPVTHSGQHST

D(2) dopamine receptor, sequence (P61169 whole entry): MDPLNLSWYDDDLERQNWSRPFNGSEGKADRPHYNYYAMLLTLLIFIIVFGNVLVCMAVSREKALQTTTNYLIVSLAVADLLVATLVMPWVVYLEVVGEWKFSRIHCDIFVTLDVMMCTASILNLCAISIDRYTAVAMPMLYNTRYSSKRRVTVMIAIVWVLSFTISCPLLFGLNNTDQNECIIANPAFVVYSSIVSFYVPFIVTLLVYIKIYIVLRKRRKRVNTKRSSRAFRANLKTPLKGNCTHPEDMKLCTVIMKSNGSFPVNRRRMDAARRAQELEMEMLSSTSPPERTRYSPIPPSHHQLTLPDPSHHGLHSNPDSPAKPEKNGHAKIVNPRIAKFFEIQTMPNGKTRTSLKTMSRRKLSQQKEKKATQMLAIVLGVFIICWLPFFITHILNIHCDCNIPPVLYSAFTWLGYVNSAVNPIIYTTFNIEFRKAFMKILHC

Compound	Ki (D(2) dopamine receptor) [nM]	Ki (D(1A) dopamine receptor) [nM]	CAR (Rattus norvegicus) [MPK]
C=CCC1CN(C)CCc2cc(Cl)c(O)cc21 (centres undefined)	284	5.7	0.1
CN1CCc2cc(O)c(Cl)cc2CC1	265	46	1
CCSC1CN(C)CCc2cc(Cl)c(O)cc21 (centres undefined)	2710	–	–
CCCC1CN(C)CCc2cc(Cl)c(O)cc21 (centres undefined)	1160	3.3	0.3
CN1CCc2cc(Cl)c(O)cc2C(C2C=CC=CC=C2)C1 (centres undefined)	1800	3.7	0.1
CN1CCc2cc(Cl)c(O)cc2C(C2CCCCC2)C1 (centres undefined)	1780	–	0.3
CN1CCc2cc(Cl)c(O)cc2C(C2CCCC2)C1 (centres undefined)	2050	13	1
CN1CCc2cc(Cl)c(O)cc2[C@@H](c2ccccc2)C1 [SCH-23390]	–	–	0.02
CN1CCc2cc(Cl)c(O)cc2C2(CCCC2)C1	2250	23	1
CCOC1CN(C)CCc2cc(Cl)c(O)cc21 (centres undefined)	> 10000	24	1
CN1CCc2cc(Cl)c(O)cc2C(C2CCCCCC2)C1 (centres undefined)	1190	7.6	1

Further lines, with some results ahead:

Ki (D(2) dopamine receptor) [nM]	Ki (D(1A) dopamine receptor) [nM]	Compound	CAR (Rattus norvegicus) [MPK]
> 10000	100	CN1CCc2cc(Cl)c(O)cc2C(N2CCCCC2)C1 (centres undefined)	3
626	8.7	C#CCC1CN(C)CCc2cc(Cl)c(O)cc21 (centres undefined)	1
1540	5.1	CN1CCc2cc(Cl)c(O)cc2C(C2=CCCC2)C1 (centres undefined)	–
1600	2.1	CN1CCc2cc(Cl)c(O)cc2C(C2=CCCCC2)C1 (centres undefined)	0.1
581	2	CN1CCc2cc(Cl)c(O)cc2C(C2C=CCCC2)C1 (centres undefined)	0.3
> 100000	> 1000	CN(C)CCCC1CN(C)CCc2cc(Cl)c(O)cc21 (centres undefined)	–

Reference: ChEMBL document CHEMBL1126414, “Dopamine receptor binding properties of some 2,3,4,5-tetrahydro-1H-3-benzazepine-7-ols with non-aromatic substituents in the 5-position” (Bioorg Med Chem Lett, 1992)
